Columns and labels:
[1] = system: L. infantum promastigote forms; test: In vitro activity against extracellular (promastigote) forms; type: cell-based, Leishmania infantum; conditions: for IC50: Leishmania infantum, 72 h; for Selectivity Index (SI) L. infantum Promastigote forms: IC50 of macrophages / IC50 of parasite form
Description: (§1) Methodology: Cultures of three Leishmania species, representative of the species causing each of the clinical forms of the disease, were used for these studies. Specifically, strains MCAN/ES/2001/UCM-1 O of L.infantum, isolated and characterised in Madrid from an infected dog; MHOM/BR/1975/M2904 of L.braziliensis, isolated in Brazil in a human case, and LCR-L 133 LRC of L.donovani. isolated in Jerusalem, Israel from a case of kala-azar […] (WHO Technical Reports Series 949. Geneva: WHO. March. The cultures of parasites come from an own collection which was prepared from a biobank project (Biobank and Characterisation Unit of Strains and Species of Trypanosomatids, Responsible for Human, Animal and Plant Pathologies, Cgl-2008-03687-E/Bos.), and are available on request.
(§2) The promastigote forms of the three species studied were cultured in vitro in sterility in single-phase MTL culture medium (Medium Trypanosomes Liquid) made from Hank’s Balanced Salts (Sigma-Aldrich, H6136) enriched with 10% (v/v) of Fetal Bovine Serum (SBF-1) inactivated at 56° C./ 30 minutes. The parasite inoculum to initiate the culture was 5 × 10^4 cells/ml in 5 ml medium in 25 cm^2 Falcon® plastic flasks and kept in an oven at 28° C. The cultures were performed routinely, achieving exponential growth of the flagellates until obtaining the cell mass necessary for the subsequent studies. Both promastigote forms and amastigote forms were used to conduct the assays.
(§3) The promastigote forms of the three Leishmania strains, cultured in the manner described above, were harvested in their exponential growth phase by centrifugation at 400 g for 10 min. The number of parasites was counted in a Neubauer Haemocytometer Counting Chamber and were inoculated in a 24-well plate at a concentration of 5 ×10^4 parasites/well.
(§4) The compounds to be assayed were dissolved in DMSO at a concentration of 0.01% (v/v), concentration at which this solvent is not toxic nor has any effect on the growth of parasites. The compounds were added to the culture medium at final concentrations of 100, 50, 25 and 12.5 µM. […] M. et al. Med. Chem. 2011. 54. 970-979].

[2] = system: L. donovani amastigote forms; test: In vitro activity against intracellular (amastigote) forms in macrophages; type: cell-based, Leishmania donovani; conditions: for Selectivity Index (SI) L. donvovani Amastigote forms: IC50 of macrophages / IC50 of parasite form; for IC50: Leishmania donovani, Macrophage, 72 h
Description: as §1
(§5) For the study of the in vitro effect on intracellular forms of Leishmania, the experimental model designed by the group of the present inventors was used [Sánchez-Moreno. M. et al. Med. Chem. 2012, 55, 9900-9913; Sánchez-Moreno. M. et al. J. Antimicrob. Chemother. 2012, 67, 387-397]. The macrophages were detached from the culture flask where they were attached by dry blows. To do this, it was incubated in cold for 5 minutes and after that the flask was hit with the palm of the hand until the cells were detached from the flask. Then, they were passed to a 25 ml capacity steriling conical bottom flask (Deltalab) to centrifuge them at 120 g for 5 minutes, removing the supernatant and were counted in Neubauer’s chamber. Cells were suspended in RPMI medium at a concentration of 1×10^4 cells/well, then cultured in 24-well plates into which a 12 mm round slide had previously been placed into each well. For adherence, the cells were left 24 h at 37° C. in 5% CO2. Subsequently, the cells were infected in vitro by placing Leishmania cells at the rate of 10 parasites/macrophage according to [Sánchez-Moreno. M et al. Med. Chem. 2011, 54, 970-979]. […] The products were allowed to act for 72 hours of incubation.
(§6) After that time, the crystals were removed and fixed with methanol on a slide and allowed to dry, after which DPX microscopy mounting medium (Panreac®) was added to it. Once the preparations had been mounted, they were dyed with Giemsa by diluting Azur-Eosin-Methylene Blue solution according to Giemsa DC (Code 251338) with Sorensen buffer (1:10 dilution). The preparations were covered and allowed to colour for 20 minutes, after which they were washed with distilled water and then allowed to drain and dry vertically. Finally, the amastigote forms were counted with the aim of immersion in a total of 200 cells.

[3] = system: L. braziliensis amastigote forms; test: as above; type: cell-based, Leishmania braziliensis; conditions: for Selectivity Index (SI) L. brazilensis Amastigote forms: IC50 of macrophages / IC50 of parasite form; for IC50: Leishmania braziliensis, Macrophage, 72 h
Description: as §1, §5, §6

[4] = Potentiometric titrations, protonation constants; type: physicochemical; conditions: 0.15 M NaCl, 298.1 K
Procedure: FEM measurements. Potentiometric titrations were conducted at 298.1 ± 0.1 K using 0.15 M NaCl as the support electrolyte. The experimental procedure (burette, potentiometer, cell, stirrer, microcomputer, etc.) has been fully described elsewhere (E. García-Spain, M.-J. Ballester, F. Lloret, J.M. Moratal, J. Faus and A. Bianchi, J. Chem. Soc. Dalton Trans. 1988, 101-104). The FEM data acquisition was performed with the PASAT software (M. Fontanelli and M. Micheloni, Program for the automatic control of the microburette and the acquisition of the electromotor force readings (PASAT). Minutes of the 1st Spanish-Italian Congress of Thermodynamics of Metal Complexes, Peñíscola, Castellón, Spain, 1990). The reference electrode was an Ag/AgCl electrode in saturated KCI solution. The glass electrode was calibrated as a hydrogen ion concentration probe by titration of previously standardised amounts of HCl with CO2 free NaOH solutions and the equivalent point determined by Gran’s method ((a) G. Gran, Analyst 1952, 77, 661 -671; (b) F.J. Rossotti and H. Rossotti, J. Chem. Educ. 1965, 42, 375-378) providing the standard potential, Eº’, and the ionic product of water (pKw = 13.73 (1)).
Hyperquad software was used to calculate protonation and stability constants (P. Gans, A. Sabatini and A. Vacca, Talanta 1996, 43, 1739-1753). The pH range investigated was 2.5-11.0 and the concentration of the ligands varied from 1×10^-3 to 5×10^-3 M. The different titration curves for each system (at least two) were treated as a single set or as separate curves without significant variations in the values of the stability constants. Finally, the data sets were fused and treated simultaneously to give the final protonation constants (Table 1). For compounds 1, 7 and 9, two protonation constants have been detected in the pH range studied with values ranging from 5.51 to 9.68 logarithmic units. For the remaining compounds, three protonation constants have been measured with values ranging from 10.08 to 2.25 logarithmic units. All compounds have charge +1 at the physiological pH value of 7.4.

[5] = system: L. braziliensis promastigote forms; test: In vitro activity against extracellular (promastigote) forms; type: cell-based, Leishmania braziliensis; conditions: for Selectivity Index (SI) L. brazilensis Promastigote forms: IC50 of macrophages / IC50 of parasite form; for IC50: Leishmania braziliensis, 72 h
Description: as §1, §2, §3, §4

[6] = system: L. donovani promastigote forms; test: as above; type: cell-based, Leishmania donovani; conditions: for Selectivity Index (SI) L. donvovani Promastigote forms: IC50 of macrophages / IC50 of parasite form; for IC50: Leishmania donovani, 72 h
Description: as §1, §2, §3, §4

[7] = system: L. infantum amastigote forms; test: In vitro activity against intracellular (amastigote) forms in macrophages; type: cell-based, Leishmania infantum; conditions: for IC50: Leishmania infantum, Macrophage, 72 h; for Selectivity Index (SI) L. infantum Amastigote forms: IC50 of macrophages / IC50 of parasite form
Description: as §1, §5, §6

Structure (SMILES)	IC50 [1] [µM]	Selectivity Index (SI) L. donvovani Amastigote forms [2]	IC50 [2] [µM]	Selectivity Index (SI) L. brazilensis Amastigote forms [3]	IC50 [3] [µM]	Log β [4]	Logarithm of the protonation constant H2L+H ⇌ H3L [4]	Logarithm of the protonation constant H+L ⇌ HL [4]	Logarithm of the protonation constant HL+H ⇌ H2L [4]	Selectivity Index (SI) L. brazilensis Promastigote forms [5]	IC50 [5] [µM]	Selectivity Index (SI) L. donvovani Promastigote forms [6]	IC50 [6] [µM]	IC50 [7] [µM]	Selectivity Index (SI) L. infantum Promastigote forms [1]	Selectivity Index (SI) L. infantum Amastigote forms [7]
CN(C)CCNCc1cccnc1 [Compound 5, 1-{3-pyridyl}-5-methyl-2,5-diazahexane]	9.2 ± 0.7	13	17.6 ± 0.7	11	20 ± 2	17.98(1)	3.16(1)	9.18(1)	5.63(1)	14	16.7 ± 0.5	11	21.7 ± 1.6	10 ± 0.8	–	–
CN(C)CCNCc1ccnc2ccccc12 [Compound 8, 1-{4-quinolyl)-5-methyl-2,5-diazahexane]	14.1 ± 0.6	2	10.6 ± 0.6	1	16.8 ± 1.1	18.99(2)	3.32(1)	10.08(1)	5.59(1)	2	13.8 ± 0.7	2 (2)	12.8 ± 0.6	11.5 ± 0.8	2 (2)	2
CNCCNCc1ccncc1 [Compound 3, 1-{4-pyridyl)-2,5-diazahexane]	12.6 ± 2.1	–	5.1 ± 0.3	8	27.9 ± 1.2	18.60(1)	3.390(6)	9.503(5)	5.713(5)	16	14.3 ± 1	12	18.4 ± 0.8	13.9 ± 1	18	16
CN(C)CCNCc1ccc2ccccc2n1 [Compound 7]	84.4 ± 5.1	11	38.9 ± 3.2	11	38.9 ± 2.7	14.63 (1)	–	9.17(1)	5.45(1)	4	105 ± 11.6	8	56.9 ± 2.7	49.7 ± 3.6	5	9
